Test system: OCI-AML2 xenografts
Assay: OCI-AML2 xenograft efficacy (tumor volume, body weight)
Settings: for Tumor Volume Day 14, Mean / Tumor Volume Day 14, Median / % T/C (mean), Tumor Volume Day 14 / % T/C (median), Tumor Volume Day 14: Day 14 (measure date = dosing begin); for Tumor Volume Day 14, Mean / Tumor Volume Day 18, Mean / Tumor Volume Day 21, Mean: group mean of 8 mice; for Tumor Volume Day 14, Median / Tumor Volume Day 18, Median / Tumor Volume Day 21, Median: group median of 8 mice; for % T/C (mean), Tumor Volume Day 14 / % T/C (median), Tumor Volume Day 14 / % T/C (mean), Tumor Volume Day 18 / % T/C (median), Tumor Volume Day 18 / % T/C (mean), Tumor Volume Day 21 / % T/C (median), Tumor Volume Day 21: control Group 01; for % T/C (mean), Tumor Volume Day 25: mean(T)/mean(C) vs Group 01 (0 mg/kg); for % T/C (median), Tumor Volume Day 25: median(T)/median(C) vs Group 01 (0 mg/kg); for % Mortality: OCI-AML-2 (DSMZ) xenograft, SCID-beige mouse, F
[1] = ABBV-467 […] Q7Dx3 IV, Venetoclax 25 mg/kg QDx14 PO, 5-Aza 8 mg/kg Q7Dx3 IV
[2] = Venetoclax 25 mg/kg QDx14 PO, 5-Aza 8 mg/kg Q7Dx3 IV
[3] = group mean, n=8, ABBV-467 […] Q7Dx3 IV, Venetoclax 25 mg/kg QDx14 PO, 5-Aza 8 mg/kg Q7Dx3 IV
[4] = group median, n=8, ABBV-467 […] Q7Dx3 IV, Venetoclax 25 mg/kg QDx14 PO, 5-Aza 8 mg/kg Q7Dx3 IV

Description: All animal studies were conducted in accordance with the guidelines approved by the Institutional Animal Care and Use Committees of AbbVie. The research protocol was approved by In Vivo Pharmacology at AbbVie prior to study initiation but was not publicly registered or disclosed. Female C.B-17 SCID-beige mice (AMO-1, OPM-2, NCI-H929, and OCI-AML2 xenografts) and female NSG mice (MV4-11-Red.Fluc systemic) were purchased from Charles River Laboratories (Wilmington, MA). Animals were housed in a light cycle-controlled room with HEPA filtration at 22 °C. Animals had nesting and climbing cage topper as the primary environmental enrichment. Animals were inoculated subcutaneously in the right flank with 5 × 10^6 (AMO-1, OPM-2, NCI-H929, and OCI-AML2) or intravenous (IV) with 5 × 10^6 (MV4-11-Red.Fluc). The inoculation volume (0.2 mL) comprised a 50:50 mixture of cells in growth media and Matrigel (BD Biosciences) for subcutaneous injections and 100% phosphate-buffered saline for IV administration. […] Electronic calipers were used to measure the length and width of each tumor 2 to 3 times per week. Tumor volume was estimated by applying the following equation: volume = length × width^2/2. All groups remained blinded during measurements and dosing; only veterinary staff were aware of group identity. When tumors reached approximately 200 mm^3, mice were randomized by match and distributed into treatment and control groups. All xenograft trials were conducted using 5 to 10 mice per group, and all mice were ear tagged and monitored individually throughout the studies.
For combination studies, all compounds were administered within 30 min of each other.
The tumor growth delay (TGD) percentage was determined as the percentage increase of the median time period for the treatment group to reach an arbitrary tumor volume of 1000 mm^3 relative to the vehicle control group. […] A power analysis was conducted using historical data to determine the number of animals required to yield significance of 0.05 at a 30% difference. There were no animals excluded. Data from experiments in vivo were analyzed using the student’s t-test for TGI values and the Mann–Whitney U test for TGD using Excel and GraphPad Prism. Fisher’s exact test was used to probe significance of differences in response frequency.

Row | Structure (SMILES) | Tumor Volume Day 14, Mean [1] | Tumor Volume Day 14, Median [1] | % T/C (mean), Tumor Volume Day 14 [1] | % T/C (median), Tumor Volume Day 14 [1] | Tumor Volume Day 18, Mean [1] | Tumor Volume Day 18, Median [1] | % T/C (mean), Tumor Volume Day 18 [1] | % T/C (median), Tumor Volume Day 18 [1] | Tumor Volume Day 21, Mean [1] | Tumor Volume Day 21, Median [1] | % T/C (mean), Tumor Volume Day 21 [1] | % T/C (median), Tumor Volume Day 21 [1] | Mortality Observation Day 25 (individual animals) [2] | Tumor Volume (mm³) Day 25, Mean [3] | Tumor Volume (mm³) Day 25, Median [4] | % T/C (mean), Tumor Volume Day 25 [1] | % T/C (median), Tumor Volume Day 25 [1] | also measured
1 | CC1(C)CCC(CN2CCN(c3ccc(C(=O)NS(=O)(=O)c4ccc(NCC5CCOCC5)c([N+](=O)[O-])c4)c(Oc4cnc5[nH]ccc5c4)c3)CC2)=C(c2ccc(Cl)cc2)C1 [A-1195425.0 (Venetoclax)] | 204.64 mm³ | 193.77 mm³ | 99.79% | 101.49% | 437.16 mm³ | 415.67 mm³ | 83.63% | 71.96% | 934.07 mm³ | 1005.20 mm³ | 102.27% | 101.40% | EUTV | 1624.63 mm³ | 1781.81 mm³ | 83.87% | 91.03% | % Mortality (Group 03, 25 mg/kg PO QDx14): 100.00%
2 | Nc1ncn([C@@H]2O[C@H](CO)[C@@H](O)[C@H]2O)c(=O)n1 [5-azacitidine, reference compound] | – | – | – | – | – | – | – | – | – | – | – | – | – | – | – | – | – | effect on OCI-AML2 xenograft growth (venetoclax 25 mg/kg QD × 14, azacitidine 8 mg/kg Q7D × 3, or the combination of both): no meaningful effect
3 | Nc1ncn([C@@H]2O[C@H](CO)[C@@H](O)[C@H]2O)c(=O)n1 [A-37426.0 (5-Aza)] | 204.71 mm³ | 196.98 mm³ | 99.83% | 103.17% | 420.77 mm³ | 428.51 mm³ | 80.49% | 74.19% | 806.97 mm³ | 777.56 mm³ | 88.35% | 78.44% | EUTV | 1474.66 mm³ | 1414.73 mm³ | 76.12% | 72.28% | % Mortality (Group 04, 8 mg/kg IV Q7Dx3): 100.00%
4 | Cc1c(Cl)c2c(Cl)c(C)c1-c1c(-c3ccc(F)cc3)sc3ncnc(c13)O[C@@H](C(=O)O)Cc1cc(ccc1OCc1ccnc(-c3ccc(OC[C@H]4COCCO4)cc3)n1)OC[C@@H](CN1CCN(C)CC1)O2 [A-1747745.0 (ABBV-467, MCL-1i)] | 205.07 mm³ | 194.10 mm³ | 100.01% | 101.66% | 319.69 mm³ | 302.00 mm³ | 61.16% | 52.29% | 701.23 mm³ | 681.22 mm³ | 76.77% | 68.72% | – | 978.87 mm³ | 1025.66 mm³ | 50.53% | 52.40% | Mortality Observation Day 28 (individual animals) (Day 28, ABBV-467 […] Q7Dx3 IV, Venetoclax 25 mg/kg QDx14 PO, 5-Aza 8 mg/kg Q7Dx3 IV): EUTV; Tumor Volume (mm³) Day 28, Mean (Day 28, group mean, n=8, ABBV-467 […] Q7Dx3 IV, Venetoclax 25 mg/kg QDx14 PO, 5-Aza 8 mg/kg Q7Dx3 IV): 1642.98 mm³; Tumor Volume (mm³) Day 28, Median (Day 28, group median, n=8, ABBV-467 […] Q7Dx3 IV, Venetoclax 25 mg/kg QDx14 PO, 5-Aza 8 mg/kg Q7Dx3 IV): 1495.57 mm³

— article PMC10600239, “Selective MCL-1 inhibitor ABBV-467 is efficacious in tumor models but is associated with cardiac troponin increases in patients” (Communications Medicine, 2023)
